Laboratory results taken from patent publication US20070026071A1, “Magnesium salt proton pump inhibitor dosage forms” (QPharma, LLC, priority 2005, published 2007).
Where two headings read alike, the source gives them in different places.

Tests used:
[1] = Phase solubility study in pH 6.8 buffer (simulated intestinal fluid) and purified water; format: physicochemical; settings: for Solubility: Active content equivalent to base in pH 6.8 buffer / Solubility: Active content equivalent to base in purified water: ambient temperature (approx. 22° C.), shaken approx. 30 minutes
Method: In this study the solubility of Omeprazole Magnesium Trihydrate and Esomeprazole Magnesium Dihydrate active materials in pH 6.8 buffer and purified water was performed. […] A pH 6.8 buffer is prepared as described under the monograph of Omeprazole Delayed Release capsules for dissolution test in United States Pharmacopoeia. Purified water and pH 6.8 buffer were used at ambient temperature (approx. 22° C.).
Samples of actives and tablet dosage form powders were used in the study. Each sample contains approx. 200 mg base equivalent Omeprazole and Esomeprazole as salts and such samples were transferred in to a centrifuge tube containing 20 mL of appropriate medium. Centrifuge tubes containing these suspensions were shaken for approx. 30 minutes on a wrist action shaker and samples were initially filtered through Whatman filter paper and subsequently filtered through 0.45 micron PTFE cartridge filters. The samples were further diluted by pipetting 1.0 mL in to 100 mL volumetric flasks and made up to the volume with appropriate medium. The optical density values were measured using a suitable UV-Visible spectrophotometer at 275 nm wavelength.

[2] = from commercially marketed dosage forms; cited from earlier work
[3] = 25° C., cited from earlier work

COc1ccc2[n-]c([S@@+]([O-])Cc3ncc(C)c(OC)c3C)nc2c1.COc1ccc2[n-]c([S@@+]([O-])Cc3ncc(C)c(OC)c3C)nc2c1.O.O.[Mg+2] [Esomeprazole Magnesium Dihydrate]
Solubility: Active content equivalent to base in pH 6.8 buffer [1]: 1.17 mg/mL
fold increased solubility by the fluid bed process as compared to the active when tested alone ([1]; purified water): approx. 1.6 fold
Solubility: Active content equivalent to base in purified water ([1]; purified water): 5020 µg/mL

Cc1c(OCC(F)(F)F)ccnc1C[S+]([O-])c1nc2ccccc2[nH]1 (stereo not shown) [Lansoprazole, 2-[[[3-methyl-4-(2,2,2-trifluroethoxy)-2-pyridyl]methyl]sulfinyl]benzimidazole]
percent bioavailability [2]: 80-85%
degradation half-life in aqueous solution ([3]; pH 5.0): approximately 0.5 hour
degradation half-life in aqueous solution ([3]; pH 7.0): approximately 18 hours

COc1ccc2[n-]c([S+]([O-])Cc3ncc(C)c(OC)c3C)nc2c1.COc1ccc2[n-]c([S+]([O-])Cc3ncc(C)c(OC)c3C)nc2c1.O.O.O.[Mg+2] (stereo not shown) [Omeprazole Magnesium Trihydrate]
fold increased solubility by the fluid bed process as compared to the active when tested alone ([1]; pH 6.8 buffer (simulated intestinal fluid)): 4 fold
Solubility: Active content equivalent to base in pH 6.8 buffer [1]: 0.31 mg/mL
fold increased solubility by the fluid bed process as compared to the active when tested alone ([1]; purified water): approx. 10 fold
Solubility: Active content equivalent to base in purified water ([1]; purified water): 260 µg/mL

COc1ccnc(C[S+]([O-])c2nc3ccc(OC(F)F)cc3[nH]2)c1OC (stereo not shown) [Pantoprazole]
percent bioavailability [2]: 77%

COCCCOc1ccnc(C[S+]([O-])c2nc3ccccc3[nH]2)c1C (stereo not shown) [Rabeprazole]
percent bioavailability [2]: 52%

COc1ccc2[nH]c([S+]([O-])Cc3ncc(C)c(OC)c3C)nc2c1 (stereo not shown) [omeprazole, 2-[2-(3,5-dimethyl-4-methoxy)-pyridylmethylsulfinyl]-(5-methoxy)-benzimidazole]
percent bioavailability [2]: 30-40%
